A short description of the test: CD69 Whole Blood Assay (CD69 Hu Blood FACS). The format is cell-based, human. The settings on record: Lymphocyte, human whole blood, anti-IgM activated B lymphocytes, FACS, IC70. Put shortly:
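Compounds tested for blocking B-cell CD69 induction by flow cytometry in human whole blood, with activation via anti-human IgM goat F(ab′)2 crosslinking of surface IgM.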

Where [1] appears, read: Table 1, read-out: CD69 Hu Blood FACS IC70.
[2] abbreviates: Table 2 (unit inferred), read-out: CD69 Hu Blood FACS (IC70).

Where two headings read alike, the source gives them in different places.

A word on the IC70: it is the concentration at which the effect reaches the 70% level. In the case of `C[C@H]1CN(C2COC2)CCN1c1ccc(Nc2cc(-c3ccnc(N4CCn5c(cc6c5[C@H]5CC[C@@H]6C5)C4=O)c3CO)cn(C)c2=O)nc1` [Example 171, (S)-2-(3-(hydroxymethyl)-4-(1-methyl-5-(5-(2-methyl-4-(oxetan-3-yl)piperazin-1-yl)pyridin-2-ylamino)-6-oxo-1,6-dihydropyridin-3-yl)pyridin-2-yl)-3,4,6,7,8,9-hexahydro-6,9-methanopyrazino[1,2-a]indol-1(2H)-one], the IC70 under setting [1] worked out at 36 nM.

In the case of `Cn1cc(-c2ccnc(N3CCn4c(cc5c4CCCC5)C3=O)c2CO)cc(Nc2nccnn2)c1=O` [Example 172, 2-(4-(5-(1,2,4-triazin-3-ylamino)-1-methyl-6-oxo-1,6-dihydropyridin-3-yl)-3-(hydroxymethyl)pyridin-2-yl)-3,4,6,7,8,9-hexahydropyrazino[1,2-a]indol-1(2H)-one], the IC70 under setting [1] is 5000 nM.

Regarding `Cc1cc(Nc2cc(-c3ccnc(N4CCn5c(cc6c5CC(C)(C)C6)C4=O)c3CO)cn(C)c2=O)nc(C)n1` [Example 173, 2-[5-(2,6-Dimethyl-pyrimidin-4-ylamino)-3′-hydroxymethyl-1-methyl-6-oxo-1,6-dihydro-[3,4′]bipyridinyl-2′-yl]-7,7-dimethyl-3,4,7,8-tetrahydro-2H,6H-cyclopenta[4,5]pyrrolo[1,2-a]pyrazin-1-one], the IC70 under setting [1] amounted to 1000 nM.

Consider `C[C@H]1CN(C2COC2)CCN1c1ccc(Nc2cc(-c3ccnc(N4CCn5c(cc6c5[C@@H]5CC[C@H]6C5)C4=O)c3CO)cn(C)c2=O)nc1` [Example 174, (1R,11S)-6-[3-(Hydroxymethyl)-4-[1-methyl-5-({5-[(2S)-2-methyl-4-(oxetan-3-yl)piperazin-1-yl]pyridin-2-yl}amino)-6-oxo-1,6-dihydropyridin-3-yl]pyridin-2-yl]-3,6-diazatetracyclo[9.2.1.0^2,10.0^3,8]tetradeca-2(10),8-dien-7-one], for which, under setting [1], the IC70 is 101 nM.

As to `CC[C@H]1CN(C2COC2)CCN1c1ccc(Nc2cc(-c3ccnc(-n4ncc5c6c(sc5c4=O)CCCC6)c3CO)cn(C)c2=O)nc1` [Example 175, 3-{5-[5-((S)-2-Ethyl-4-oxetan-3-yl-piperazin-1-yl)-pyridin-2-ylamino]-3′-hydroxymethyl-1-methyl-6-oxo-1,6-dihydro-[3,4′]bipyridinyl-2′-yl}-6,7,8,9-tetrahydro-3H-benzo[4,5]thieno[2,3-d]pyridazin-4-one], the IC70 under setting [1] stood at 46.6 nM.

On to `C[C@H]1CN(C2COC2)CCN1c1ccc(Nc2cc(-c3ccnc(-n4ccn5c6c(cc5c4=O)CCCC6)c3CO)cn(C)c2=O)nc1` [Example 176, (S)-2-(3-(hydroxymethyl)-4-(1-methyl-5-(5-(2-methyl-4-(oxetan-3-yl)piperazin-1-yl)pyridin-2-ylamino)-6-oxo-1,6-dihydropyridin-3-yl)pyridin-2-yl)-6,7,8,9-tetrahydropyrazino[1,2-a]indol-1(2H)-one], for which the IC70 under setting [1] is 37.5 nM.

`CCN1CCn2nc(Nc3cc(-c4ccnc(N5CCn6c(cc7c6CCCC7)C5=O)c4CO)cn(C)c3=O)cc2C1` [Example 177, 2-(4-(5-(5-ethyl-4,5,6,7-tetrahydropyrazolo[1,5-a]pyrazin-2-ylamino)-1-methyl-6-oxo-1,6-dihydropyridin-3-yl)-3-(hydroxymethyl)pyridin-2-yl)-3,4,6,7,8,9-hexahydropyrazino[1,2-a]indol-1(2H)-one]: the IC70 under setting [1] worked out at 107 nM.

Take `Cn1cc(-c2ccnc(-n3ncc4c5c(sc4c3=O)CCCC5)c2CO)cc(Nc2ccccn2)c1=O` [Example 178, 3-[3′-Hydroxymethyl-1-methyl-6-oxo-5-(pyridin-2-ylamino)-1,6-dihydro-[3,4′]bipyridinyl-2′-yl]-6,7,8,9-tetrahydro-3H-benzo[4,5]thieno[2,3-d]pyridazin-4-one]: under setting [1], the IC70 was found to be 1100 nM.

In the case of `Cc1nccc(Nc2cc(-c3ccnc(N4CCn5c(cc6c5CC(C)(C)C6)C4=O)c3CO)cn(C)c2=O)n1` [Example 179, 2-[3′-Hydroxymethyl-1-methyl-5-(2-methyl-pyrimidin-4-ylamino)-6-oxo-1,6-dihydro-[3,4′]bipyridinyl-2′-yl]-7,7-dimethyl-3,4,7,8-tetrahydro-2H,6H-cyclopenta[4,5]pyrrolo[1,2-a]pyrazin-1-one], under setting [1], the IC70 came out at 209 nM.

For the molecule `Cc1cc(Nc2cc(-c3ccnc(N4CCn5c(cc6c5CC(C)(C)C6)C4=O)c3CO)cn(C)c2=O)ncn1` [Example 180, 2-[3′-Hydroxymethyl-1-methyl-5-(6-methyl-pyrimidin-4-ylamino)-6-oxo-1,6-dihydro-[3,4′]bipyridinyl-2′-yl]-7,7-dimethyl-3,4,7,8-tetrahydro-2H,6H-cyclopenta[4,5]pyrrolo[1,2-a]pyrazin-1-one], the IC70 under setting [1] stood at 245 nM.

As to `CN1CCn2nc(Nc3cc(-c4ccnc(-n5ncc6c7c(sc6c5=O)CCCC7)c4CO)cn(C)c3=O)cc2C1` [Example 181, 3-[3′-Hydroxymethyl-1-methyl-5-(5-methyl-4,5,6,7-tetrahydro-pyrazolo[1,5-a]pyrazin-2-ylamino)-6-oxo-1,6-dihydro-[3,4′]bipyridinyl-2′-yl]-6,7,8,9-tetrahydro-3H-benzo[4,5]thieno[2,3-d]pyridazin-4-one], the IC70 under setting [1] came to 144 nM.

As to `Cn1cc(-c2ccnc(-n3ncc4c5c(sc4c3=O)CCCC5)c2CO)cc(Nc2ccncn2)c1=O` [Example 182, 3-[3′-Hydroxymethyl-1-methyl-6-oxo-5-(pyrimidin-4-ylamino)-1,6-dihydro-[3,4′]bipyridinyl-2′-yl]-6,7,8,9-tetrahydro-3H-benzo[4,5]thieno[2,3-d]pyridazin-4-one], under setting [1], the IC70 worked out at 813 nM.

For the molecule `Cn1cc(-c2ccnc(N3CCn4c5c(c(F)c4C3=O)CCCC5)c2CO)cc(Nc2ccccn2)c1=O` [Example 183, 10-fluoro-2-(3-(hydroxymethyl)-4-(1-methyl-6-oxo-5-(pyridin-2-ylamino)-1,6-dihydropyridin-3-yl)pyridin-2-yl)-3,4,6,7,8,9-hexahydropyrazino[1,2-a]indol-1(2H)-one], the IC70 under setting [1] came to 906 nM.

As to `Cn1cc(-c2ccnc(N3CCc4c(sc5c4CC(C)(C)C5)C3=O)c2CO)cc(Nc2cnccn2)c1=O` [Example 184, 6-[3′-Hydroxymethyl-1-methyl-6-oxo-5-(pyrazin-2-ylamino)-1,6-dihydro-[3,4′]bipyridinyl-2′-yl]-2,2-dimethyl-2,3,5,6-tetrahydro-1H,4H-8-thia-6-aza-cyclopenta[a]inden-7-one], the IC70 under setting [1] came to 601 nM.

With `Cn1cc(-c2ccnc(N3CCn4c(cc5c4CC(C)(C)C5)C3=O)c2CO)nc(Nc2ccn3ccnc3c2)c1=O` [Example 185, 2-{3-Hydroxymethyl-4-[6-(imidazo[1,2-a]pyridin-7-ylamino)-4-methyl-5-oxo-4,5-dihydro-pyrazin-2-yl]-pyridin-2-yl}-7,7-dimethyl-3,4,7,8-tetrahydro-2H,6H-cyclopenta[4,5]pyrrolo[1,2-a]pyrazin-1-one], the IC70 under setting [1] amounted to 1300 nM.

Turning to `Cn1cc(-c2ccnc(N3CCn4c5c(c(F)c4C3=O)CCCC5)c2CO)nc(Nc2cccnc2)c1=O` [Example 186, 10-fluoro-2-(3-(hydroxymethyl)-4-(4-methyl-5-oxo-6-(pyridin-3-ylamino)-4,5-dihydropyrazin-2-yl)pyridin-2-yl)-3,4,6,7,8,9-hexahydropyrazino[1,2-a]indol-1(2H)-one], under setting [1], the IC70 stood at 1600 nM.

For the molecule `Cn1cc(-c2ccnc(N3CCn4c(cc5c4CCCC5)C3=O)c2CO)cc(Nc2ccc(N3CCN(C4COC4)CC3(C)C)cn2)c1=O` [Example 187, 2-(4-(5-(5-(2,2-dimethyl-4-(oxetan-3-yl)piperazin-1-yl)pyridin-2-ylamino)-1-methyl-6-oxo-1,6-dihydropyridin-3-yl)-3-(hydroxymethyl)pyridin-2-yl)-3,4,6,7,8,9-hexahydropyrazino[1,2-a]indol-1(2H)-one], the IC70 under setting [1] came to 45.1 nM.

As for `Cn1cc(-c2ccnc(N3CCn4c(cc5c4CC(C)(C)C5)C3=O)c2CO)cc(Nc2cnccn2)c1=O` [Example 188, 2-[3′-Hydroxymethyl-1-methyl-6-oxo-5-(pyrazin-2-ylamino)-1,6-dihydro-[3,4′]bipyridinyl-2′-yl]-7,7-dimethyl-3,4,7,8-tetrahydro-2H,6H-cyclopenta[4,5]pyrrolo[1,2-a]pyrazin-1-one], the IC70 under setting [1] stood at 601 nM.

For `Cn1cc(-c2ccnc(N3CCn4c(cc5c4CCCC5)C3=O)c2CO)cc(Nc2cnc(N3CCN(C4COC4)CC3)cn2)c1=O` [Example 189, 2-(3-(hydroxymethyl)-4-(1-methyl-5-(5-(4-(oxetan-3-yl)piperazin-1-yl)pyrazin-2-ylamino)-6-oxo-1,6-dihydropyridin-3-yl)pyridin-2-yl)-3,4,6,7,8,9-hexahydropyrazino[1,2-a]indol-1(2H)-one], under setting [1], the IC70 was determined as 652 nM.

For the molecule `Cn1cc(-c2ccnc(N3CCn4c(cc5c4CCCC5)C3=O)c2CO)cc(Nc2ccc(N3CCN(C4COC4)CC3(C)C)cn2)c1=O` [Example 190, 2-[4-[5-[[5-[2,2-dimethyl-4-(oxetan-3-yl)piperazin-1-yl]-2-pyridyl]amino]-1-methyl-6-oxo-3-pyridyl]-3-(hydroxymethyl)-2-pyridyl]-3,4,6,7,8,9-hexahydropyrazino[1,2-a]indol-1-one], the IC70 under setting [2] worked out at 70.4 nM.

On to `C[C@H]1CN(C2COC2)CCN1c1ccc(Nc2cc(-c3ccnc(-n4ncc5c6c(sc5c4=O)CCCC6)c3CO)cn(C)c2=O)nc1` [Example 191, 5-[3-(Hydroxymethyl)-4-[1-methyl-5-({5-[(2S)-2-methyl-4-(oxetan-3-yl)pipera-zin-1-yl]pyridin-2-yl}amino)-6-oxo-1,6-dihydropyridin-3-yl]pyridin-2-yl]-8-thia-4,5-diazatricyclo[7.4.0.0^2,7]trideca-1(9),2(7),3-trien-6-one], for which the IC70 under setting [2] turned out to be 43.5 nM.

On to `C[C@H]1CN(C2COC2)CCN1c1ccc(Nc2cc(-c3ccnc(-n4ncc5c6n(cc5c4=O)CCCC6)c3CO)cn(C)c2=O)nc1` [Example 192, 3-[3-(hydroxymethyl)-4-[1-methyl-5-[[5-[(2S)-2-methyl-4-(oxetan-3-yl)piperazin-1-yl]-2-pyridyl]amino]-6-oxo-3-pyridyl]-2-pyridyl]-7,8,9,10-tetrahydropyridazino[4,5-a]indolizin-4-one], for which the IC70 under setting [2] is 1100 nM.

The values are drawn from patent publication US10045983B2, “Heteroaryl pyridone and aza-pyrodine compounds” (Genentech, Inc., priority 2011, dated 2018).
